Test results published in the Kinase Knowledgebase extract (Sharma et al. 2016).

molecular target: PIK3CG (human) (UniProt P48736); assay: Inhibition of PIK3CG Kinase Activity
Sequence (P48736 whole entry, looked up): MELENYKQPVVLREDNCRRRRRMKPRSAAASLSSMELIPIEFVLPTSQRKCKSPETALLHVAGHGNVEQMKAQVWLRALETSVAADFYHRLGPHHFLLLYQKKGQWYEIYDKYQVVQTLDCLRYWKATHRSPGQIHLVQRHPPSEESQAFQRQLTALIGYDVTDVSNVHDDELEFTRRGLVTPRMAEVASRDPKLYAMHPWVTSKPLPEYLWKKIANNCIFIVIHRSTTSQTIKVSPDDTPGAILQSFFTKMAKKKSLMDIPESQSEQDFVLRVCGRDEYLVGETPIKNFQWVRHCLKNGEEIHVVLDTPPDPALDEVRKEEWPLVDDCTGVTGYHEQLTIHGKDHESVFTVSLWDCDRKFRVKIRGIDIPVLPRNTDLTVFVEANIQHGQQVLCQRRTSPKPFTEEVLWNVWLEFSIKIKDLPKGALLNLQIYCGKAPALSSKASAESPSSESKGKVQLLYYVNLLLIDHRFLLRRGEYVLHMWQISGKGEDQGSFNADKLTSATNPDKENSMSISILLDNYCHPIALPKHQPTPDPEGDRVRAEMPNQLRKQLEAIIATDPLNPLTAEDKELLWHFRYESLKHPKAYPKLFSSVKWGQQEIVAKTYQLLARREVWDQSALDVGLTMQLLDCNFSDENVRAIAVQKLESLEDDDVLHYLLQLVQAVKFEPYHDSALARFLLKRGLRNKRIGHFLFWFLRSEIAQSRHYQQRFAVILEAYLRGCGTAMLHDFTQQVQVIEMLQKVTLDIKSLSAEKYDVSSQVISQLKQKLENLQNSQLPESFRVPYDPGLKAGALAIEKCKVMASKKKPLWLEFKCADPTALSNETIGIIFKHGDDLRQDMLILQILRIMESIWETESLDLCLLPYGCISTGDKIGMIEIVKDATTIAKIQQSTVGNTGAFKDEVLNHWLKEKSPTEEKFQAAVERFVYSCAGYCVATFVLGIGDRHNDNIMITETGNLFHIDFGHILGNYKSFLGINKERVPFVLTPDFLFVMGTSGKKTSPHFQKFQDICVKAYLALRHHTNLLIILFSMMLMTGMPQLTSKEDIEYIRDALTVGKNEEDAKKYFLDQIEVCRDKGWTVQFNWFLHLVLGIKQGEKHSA

SMILES | IC50
CC(=O)NCC1CCCN(C(=O)Nc2nc3c(s2)-c2c(cnn2-c2ccccc2Cl)C3)C1 (configuration not stated) | < 800 nM
CC(C)n1nc(CCNC(=O)Nc2nc3c(s2)-c2c(cnn2-c2ccccc2C(F)(F)F)C3)cc1N | < 800 nM
CC(C)(C)OC(=O)Nc1cccc(CNC(=O)Nc2nc3c(s2)-c2c(cnn2-c2ccccc2Cl)C3)c1 | < 800 nM
CCNC(=O)Nc1nc2c(s1)-c1c(cnn1-c1ccccc1Br)C2 | < 800 nM
CCCn1cnc(CCNC(=O)Nc2nc3c(s2)-c2c(cnn2-c2ccccc2Br)C3)c1 | < 800 nM
O=C(NCc1cccc(N2CCNC2=O)c1)Nc1nc2c(s1)-c1c(cnn1-c1ccccc1C(F)(F)F)C2 | < 800 nM
CC(C)(C)n1nc(CCNC(=O)Nc2nc3c(s2)-c2c(cnn2-c2ccccc2C(F)(F)F)C3)cc1N | < 800 nM
Nc1cc(-c2ccccc2)nn1CCNC(=O)Nc1nc2c(s1)-c1c(cnn1-c1ccccc1C(F)(F)F)C2 | < 800 nM
O=C(NCc1nnn[nH]1)Nc1nc2c(s1)-c1c(cnn1-c1ccccc1C(F)(F)F)C2 | < 800 nM
CCCNC(=O)Nc1nc2c(s1)-c1c(cnn1-c1ccccc1Br)C2 | < 800 nM
Nc1cc(CCNC(=O)Nc2nc3c(s2)-c2c(cnn2-c2ccccc2C(F)(F)F)C3)nn1C1CCN(Cc2ccccc2)CC1 | < 800 nM
CCc1nnc(CCNC(=O)Nc2nc3c(s2)-c2c(cnn2-c2ccccc2C(F)(F)F)C3)o1 | < 800 nM
Nc1cc(CCNC(=O)Nc2nc3c(s2)-c2c(cnn2-c2ccccc2C(F)(F)F)C3)nn1C1CCCCC1 | < 800 nM
CCCNC(=O)Nc1nc2c(s1)-c1c(cnn1-c1ccccc1Cl)C2 | < 800 nM
O=C(NCCn1nc(C(F)(F)F)cc1-c1ccco1)Nc1nc2c(s1)-c1c(cnn1-c1ccccc1C(F)(F)F)C2 | < 800 nM
Cc1cc(CNC(=O)Nc2nc3c(s2)-c2c(cnn2-c2ccccc2C(F)(F)F)C3)nn1C | < 800 nM
CC(C)(CNc1ccc(C(C)(C)C)cc1)NC(=O)Nc1nc2c(s1)-c1c(cnn1-c1ccccc1Cl)C2 | < 800 nM
CNC(=O)c1ccc(-n2ncc3c2-c2sc(NC(=O)NCc4cc(C5CC5)n[nH]4)nc2C3)c(C(F)(F)F)c1 | < 800 nM
Cc1nc[nH]c1-c1cccc(CNC(=O)Nc2nc3c(s2)-c2c(cnn2-c2ccccc2Cl)C3)c1 | < 800 nM
O=C1CCC(NC(=O)Nc2nc3c(s2)-c2c(cnn2-c2ccccc2Cl)C3)C(c2ccccc2)N1 (configuration not stated) | < 800 nM
O=C(Nc1nc2c(s1)-c1c(cnn1-c1ccccc1Cl)C2)N1CCCC(C(O)c2ccccc2)C1 (configuration not stated) | < 800 nM
O=C(NCCc1cn[nH]c1)Nc1nc2c(s1)-c1c(cnn1-c1ccccc1C(F)(F)F)C2 | < 800 nM
Nc1nnc(CNC(=O)Nc2nc3c(s2)-c2c(cnn2-c2ccccc2C(F)(F)F)C3)[nH]1 | < 800 nM

SMILES | IC50
CC(C)(C)c1cc(N)n(CCNC(=O)Nc2nc3c(s2)-c2c(cnn2-c2ccccc2C(F)(F)F)C3)n1 | < 800 nM
CC(C)(C)OC(=O)N1CCC[C@H]1CNC(=O)Nc1nc2c(s1)-c1c(cnn1-c1ccccc1C(F)(F)F)C2 | < 800 nM
CC(C)NC(=O)Nc1nc2c(s1)-c1c(cnn1-c1ccccc1C(F)(F)F)C2 | < 800 nM
CCOC(=O)c1ccc(CNC(=O)Nc2nc3c(s2)-c2c(cnn2-c2ccccc2C(F)(F)F)C3)o1 | < 800 nM
O=C(NCc1nnn[nH]1)Nc1nc2c(s1)-c1c(cnn1-c1ccccc1Br)C2 | < 800 nM
CC(C)CCNC(=O)Nc1nc2c(s1)-c1c(cnn1-c1ccccc1Cl)C2 | < 800 nM
CCn1cnc(CCNC(=O)Nc2nc3c(s2)-c2c(cnn2-c2ccccc2Br)C3)c1 | < 800 nM
CC(C)n1nc(CNC(=O)Nc2nc3c(s2)-c2c(cnn2-c2ccccc2C(F)(F)F)C3)cc1N | < 800 nM
Cc1cc(-c2cccnc2)n(CCNC(=O)Nc2nc3c(s2)-c2c(cnn2-c2ccccc2C(F)(F)F)C3)n1 | < 800 nM
Nc1cc(CCNC(=O)Nc2nc3c(s2)-c2c(cnn2-c2ccccc2C(F)(F)F)C3)[nH]n1 | < 800 nM
Cn1nc(CCNC(=O)Nc2nc3c(s2)-c2c(cnn2-c2ccccc2C(F)(F)F)C3)cc1N | < 800 nM
CC(C)(C)OC(=O)N1CCC[C@@H]1CNC(=O)Nc1nc2c(s1)-c1c(cnn1-c1ccccc1Cl)C2 | < 800 nM
CN(C)C(=O)Nc1nc2c(s1)-c1c(cnn1-c1ccccc1Br)C2 | < 800 nM
CC(C)c1nnc(CCNC(=O)Nc2nc3c(s2)-c2c(cnn2-c2ccccc2Cl)C3)o1 | < 800 nM
O=C(NCc1cc(C2CC2)n[nH]1)Nc1nc2c(s1)-c1c(cnn1-c1ccccc1C(F)(F)F)C2 | < 800 nM
O=C(NCc1ccn[nH]1)Nc1nc2c(s1)-c1c(cnn1-c1ccccc1C(F)(F)F)C2 | < 800 nM
O=C(NCC1CC1)Nc1nc2c(s1)-c1c(cnn1-c1cccc(F)c1C(F)(F)F)C2 | < 800 nM
CNC(=O)Nc1nc2c(s1)-c1c(cnn1-c1ccccc1Br)C2 | < 800 nM
O=C(NCc1ccoc1)Nc1nc2c(s1)-c1c(cnn1-c1ccccc1C(F)(F)F)C2 | < 800 nM
CCc1cnc(CCNC(=O)Nc2nc3c(s2)-c2c(cnn2-c2ccccc2Br)C3)o1 | < 800 nM
CCCNC(=O)Nc1nc2c(s1)-c1c(cnn1-c1cc(Cl)ccc1Cl)C2 | < 800 nM
O=C(Nc1nc2c(s1)-c1c(cnn1-c1ccccc1Cl)C2)N1CCC(n2cnc3ccccc32)CC1 | < 800 nM
O=C(NCc1cc(C2CC2)n[nH]1)Nc1nc2c(s1)-c1c(cnn1-c1cccc(F)c1C(F)(F)F)C2 | < 800 nM

SMILES | IC50
O=C(NCC1CC1)Nc1nc2c(s1)-c1c(cnn1-c1ccccc1Cl)C2 | < 800 nM
Nc1cc(CCNC(=O)Nc2nc3c(s2)-c2c(cnn2-c2ccccc2C(F)(F)F)C3)nn1-c1ccccc1 | < 800 nM
N#CCCn1nc(CCNC(=O)Nc2nc3c(s2)-c2c(cnn2-c2ccccc2C(F)(F)F)C3)cc1N | < 800 nM
O=C(NCCO)Nc1nc2c(s1)-c1c(cnn1-c1ccccc1C(F)(F)F)C2 | < 800 nM
CCc1cnc(CCNC(=O)Nc2nc3c(s2)-c2c(cnn2-c2ccccc2Cl)C3)o1 | < 800 nM
CC(C)(C)CNC(=O)Nc1nc2c(s1)-c1c(cnn1-c1ccccc1Cl)C2 | < 800 nM
CNC(=O)Nc1nc2c(s1)-c1c(cnn1-c1ccccc1C(F)(F)F)C2 | < 800 nM
CC(C)(C)OC(=O)CCNC(=O)Nc1nc2c(s1)-c1c(cnn1-c1cc(Cl)ccc1Cl)C2 | < 800 nM
CN(C)CCNC(=O)Nc1nc2c(s1)-c1c(cnn1-c1ccccc1C(F)(F)F)C2 | < 800 nM
CC(C)(C)OC(=O)CCNC(=O)Nc1nc2c(s1)-c1c(cnn1-c1ccccc1Br)C2 | < 800 nM
CNC(=O)Nc1nc2c(s1)-c1c(cnn1-c1cccc(F)c1C(F)(F)F)C2 | < 800 nM
Cc1cc(-c2ccccc2)n(CCNC(=O)Nc2nc3c(s2)-c2c(cnn2-c2ccccc2C(F)(F)F)C3)n1 | < 800 nM
CN(C)C(=O)CNC(=O)Nc1nc2c(s1)-c1c(cnn1-c1ccccc1Cl)C2 | < 800 nM
O=C(NCc1ccccc1)Nc1nc2c(s1)-c1c(cnn1-c1ccccc1C(F)(F)F)C2 | < 800 nM
CCCNC(=O)Nc1nc2c(s1)-c1c(cnn1-c1cc(F)ccc1C(F)(F)F)C2 | < 800 nM
O=C(NCCN1CCCC1)Nc1nc2c(s1)-c1c(cnn1-c1ccccc1Br)C2 | < 800 nM
CC(C)c1noc(CCNC(=O)Nc2nc3c(s2)-c2c(cnn2-c2ccccc2Cl)C3)n1 | < 800 nM
CN1CCC(CNC(=O)Nc2nc3c(s2)-c2c(cnn2-c2ccccc2Cl)C3)CC1 | < 800 nM
O=C(NCc1ccccc1)Nc1nc2c(s1)-c1c(cnn1-c1ccccc1Cl)C2 | < 800 nM
NC(=O)c1cccc(CNC(=O)Nc2nc3c(s2)-c2c(cnn2-c2ccccc2C(F)(F)F)C3)c1 | < 800 nM
CCc1cnc(CCNC(=O)Nc2nc3c(s2)-c2c(cnn2-c2cc(Cl)ccc2Cl)C3)o1 | < 800 nM
CC(C)(C)OC(=O)N1CCCC(CNC(=O)Nc2nc3c(s2)-c2c(cnn2-c2ccccc2Cl)C3)C1 (configuration not stated) | < 800 nM
CCn1ccc(CNC(=O)Nc2nc3c(s2)-c2c(cnn2-c2ccccc2C(F)(F)F)C3)n1 | < 800 nM

SMILES | IC50
O=C(NCCc1cn[nH]c1)Nc1nc2c(s1)-c1c(cnn1-c1ccccc1Cl)C2 | < 800 nM
CC(C)(C)OC(=O)N1CCCCC1CNC(=O)Nc1nc2c(s1)-c1c(cnn1-c1ccccc1Cl)C2 (configuration not stated) | < 800 nM
CCNC(=O)Nc1c(CCNC(=O)Nc2nc3c(s2)-c2c(cnn2-c2ccccc2C(F)(F)F)C3)cnn1C | < 800 nM
O=C(NCCCN1CCNC1=O)Nc1nc2c(s1)-c1c(cnn1-c1ccccc1Cl)C2 | < 800 nM
CC1(C)NC(=O)N(Cc2ccc(CNC(=O)Nc3nc4c(s3)-c3c(cnn3-c3ccccc3Cl)C4)cc2)C1=O | < 800 nM
CCNC(=O)Nc1nc2c(s1)-c1c(cnn1-c1cccc(F)c1C(F)(F)F)C2 | < 800 nM
Cc1onc(-c2ccccc2)c1CNC(=O)Nc1nc2c(s1)-c1c(cnn1-c1ccccc1C(F)(F)F)C2 | < 800 nM
CC(C)(CCn1c(=O)[nH]c2ccccc21)NC(=O)Nc1nc2c(s1)-c1c(cnn1-c1ccccc1C(F)(F)F)C2 | < 800 nM
Nc1cc(CNC(=O)Nc2nc3c(s2)-c2c(cnn2-c2ccccc2C(F)(F)F)C3)nn1C1CCCC1 | < 800 nM
CN(C)C(=O)Nc1nc2c(s1)-c1c(cnn1-c1ccccc1C(F)(F)F)C2 | < 800 nM
CN(Cc1ccco1)C(=O)Nc1nc2c(s1)-c1c(cnn1-c1ccccc1C(F)(F)F)C2 | < 800 nM
O=C(NCc1ccsc1)Nc1nc2c(s1)-c1c(cnn1-c1ccccc1C(F)(F)F)C2 | < 800 nM
CCc1cnc(CCNC(=O)Nc2nc3c(s2)-c2c(cnn2-c2ccccc2C(F)(F)F)C3)o1 | < 800 nM
NC(=O)Nc1nc2c(s1)-c1c(cnn1-c1ccccc1Br)C2 | < 800 nM
Nc1cc(CNC(=O)Nc2nc3c(s2)-c2c(cnn2-c2ccccc2C(F)(F)F)C3)nn1-c1ccccc1 | < 800 nM
CC(C)NC(=O)Nc1nc2c(s1)-c1c(cnn1-c1ccccc1Br)C2 | < 800 nM
O=C1CC[C@H](NC(=O)Nc2nc3c(s2)-c2c(cnn2-c2ccccc2Cl)C3)CN1 | < 800 nM
O=C(NCc1ccncc1)Nc1nc2c(s1)-c1c(cnn1-c1ccccc1C(F)(F)F)C2 | < 800 nM
CCOC(=O)CCNC(=O)Nc1nc2c(s1)-c1c(cnn1-c1ccccc1Br)C2 | < 800 nM
CC(C)Cn1cnc(CCNC(=O)Nc2nc3c(s2)-c2c(cnn2-c2ccccc2C(F)(F)F)C3)c1 | < 800 nM
CC(C)(C)OC(=O)CCNC(=O)Nc1nc2c(s1)-c1c(cnn1-c1ccccc1C(F)(F)F)C2 | < 800 nM
O=C(O)CC1(CNC(=O)Nc2nc3c(s2)-c2c(cnn2-c2ccccc2Cl)C3)CCCCC1 | < 800 nM
O=C(NCC1CCCN(c2ncccn2)C1)Nc1nc2c(s1)-c1c(cnn1-c1ccccc1Cl)C2 (configuration not stated) | < 800 nM
